The values below come from ChEMBL document CHEMBL4130627, “Prodrugs of the Phosphoribosylated Forms of Hydroxypyrazinecarboxamide Pseudobase T-705 and Its De-Fluoro Analogue T-1105 as Potent Influenza Virus Inhibitors” (J Med Chem, 2018).

Where only a bound is given, the exact number is not on record here.

Experiment in all cases: microbe, parasite or virus in culture
The test system of assay [1] is Influenza B virus. Particulars: Ned/537/05, MDCK, 72 h.
For assay [2], the system named is Influenza B virus. Particulars: Ned/537/05, MDCK, 72 h. The source holds these as a separate data set.
In assay [3] the test system is Influenza A virus. The note with it: MDCK, 72 h.
Assay [4] has as its system Influenza A virus. Particulars: MDCK, 72 h. This is another data set of the same source.

With `CCCCCCCCCC(=O)Oc1ccc(COP(=O)(OCc2ccc(OC(=O)CCCCCCCCC)cc2)OP(=O)(O)OC[C@H]2O[C@@H](n3ccnc(C(N)=O)c3=O)[C@H](O)[C@@H]2O)cc1.CCN(CC)CC`, the EC50 is 0.39 µM in assay [1], 0.55 µM in assay [2], 1.3 µM in assay [3] and 0.97 µM in assay [4].

As for `CCCCCCCCCC(=O)Oc1ccc(COP(=O)(OCc2ccc(OC(=O)CCCCCCCCC)cc2)OP(=O)(O)OP(=O)(O)OC[C@H]2O[C@@H](n3ccnc(C(N)=O)c3=O)[C@H](O)[C@@H]2O)cc1.CCN(CC)CC.CCN(CC)CC`, the EC50 in assay [1] worked out at 1 µM; in assay [2], 1.9 µM; in assay [3], 2.6 µM; in assay [4], 4.5 µM.

On to `CC(=O)O[C@@H]1[C@H](OC(C)=O)[C@@H](COP2(=O)OCc3cccc(C)c3O2)O[C@H]1n1ccnc(C(N)=O)c1=O` (stereo partly specified), for which the EC50 is 177 µM in assay [1], above 400 µM in assay [2], above 400 µM in assay [3] and above 400 µM in assay [4].

On to `CCCCCCCCCCCCCCC(=O)Oc1ccc(COP(=O)(OCc2ccc(OC(=O)CCCC)cc2)OP(=O)(O)OP(=O)(O)OC[C@H]2O[C@@H](n3ccnc(C(N)=O)c3=O)[C@H](O)[C@@H]2O)cc1.CCN(CC)CC.CCN(CC)CC` (stereo partly specified), for which the EC50 turned out to be 1.5 µM in assay [1], 2.6 µM in assay [2], 5.6 µM in assay [3] and 5.4 µM in assay [4].

`NC(=O)c1nccn([C@@H]2O[C@H](CO)[C@@H](O)[C@H]2O)c1=O`: the EC50 worked out at 19 µM in assay [1], 20 µM in assay [2], 53 µM in assay [3] and 51 µM in assay [4].

`NC(=O)c1nc(Br)cnc1O`: the EC50 in assay [1] was 63 µM; in assay [2] it was above 250 µM; in assay [3], above 250 µM; in assay [4], above 250 µM.

Regarding `Cc1cccc2c1OP(=O)(OC[C@H]1O[C@@H](n3ccnc(C(N)=O)c3=O)[C@H](O)[C@@H]1O)OC2` (stereo partly specified), the EC50 worked out at 106 µM in assay [1], 200 µM in assay [2], 256 µM in assay [3] and 368 µM in assay [4].

With `CCCCCCCCCCCCCCC(=O)Oc1ccc(COP(=O)(OCc2ccc(OC(=O)CCCC)cc2)OP(=O)(O)OC[C@H]2O[C@@H](n3cc(F)nc(C(N)=O)c3=O)[C@H](O)[C@@H]2O)cc1.CCN(CC)CC` (stereo partly specified), the EC50 in assay [1] was found to be 2.8 µM; in assay [2], 3.4 µM; in assay [3], 6.6 µM; in assay [4] it was 8.8 µM.

Take `NC(=O)c1nc(F)cnc1O`: the EC50 in assay [1], in assay [2], in assay [3] and in assay [4] was above 250 µM throughout.

As for `NC(=O)c1nc(Br)cn([C@@H]2O[C@H](CO)[C@@H](O)[C@H]2O)c1=O`, the EC50 in assay [1] was 170 µM; in assay [2], above 250 µM; in assay [3], above 250 µM; in assay [4], above 250 µM.

For the compound `CCCCCCCCCCCCCCC(=O)Oc1ccc(COP(=O)(OCc2ccc(OC(=O)CCCC)cc2)OP(=O)(O)OC[C@H]2O[C@@H](n3ccnc(C(N)=O)c3=O)[C@H](O)[C@@H]2O)cc1.CCN(CC)CC` (stereo partly specified), the EC50 in assay [1] is 0.53 µM; in assay [2] it was 0.66 µM; in assay [3], 1.5 µM; in assay [4], 1.4 µM.

On to `NC(=O)c1ncn([C@@H]2O[C@H](CO)[C@@H](O)[C@H]2O)n1` [RIBAVIRIN], for which the EC50 in assay [1] was found to be 1.5 µM; in assay [3], 5 µM; in assay [4], 5.8 µM.

As for `NC(=O)c1nccnc1O`, the concentration for a half-maximal effect (EC50) in assay [1], in assay [2], in assay [3] and in assay [4] was above 250 µM in each case.

One may read the EC50 as the concentration that produces a half-maximal response. High values mean lower potency in that assay, low ones higher potency in that assay.
